Patent US20150190369A1, “QUERCETIN-3-GLUCOSIDE AND USES THEREOF” (priority 2012, published 2015)

Columns and labels:
PCSK9 gene = conditions: cited from earlier work
[1] = system: hepatocyte nuclear factor 1α (HNF-1α); conditions: cited from earlier work
Apo B = conditions: Caco-2 cells, 5-30 μM; cited from earlier work
LDLR [2] = assay: Semi-quantitative immunoblotting for LDLR protein in Huh7 cell lysates; type: cell-based, human; conditions: Huh7, at the concentrations of Q3G discussed
Procedure: At passage, Huh7 cells were routinely seeded at sub-confluence (˜10^6 cells/10-cm dish) in Dulbecco's modified Eagle's medium (DMEM) containing 10% fetal bovine serum (FBS) or LPDS (for experiments) and 50 μg/ml gentamycin. They were incubated overnight at 37° C., in a humidified 5% CO2-95% air atmosphere. Cells were treated or not with Q3G at defined concentrations and for defined lengths of time. Media were collected and centrifuged at 200 g for 5 min to sediment suspended cells; supernatants were collected and supplemented with 0.33 volumes of a 3×-concentrated PIC. Cell monolayers were rinsed with ice-cold phosphate-buffered saline (PBS); they were overlaid with […] the RIPA lysis buffer (50 mM Tris-HCl, pH 8, 150 mM NaCl, 1% NP-40, 0.5% Na-deoxycholate and 0.1% SDS) supplemented with 1× PIC. After 20 min in an ice bath, the lysates were centrifuged at 14,000 g and 4° C. for 20 min, and supernatants were collected. Conditioned media and lysates were stored at −20° C. until analysis.
Cell lysates were fractionated by SDS-PAGE and electrophoretically transferred onto a polyvinylidene fluoride membrane. The membrane was incubated with a goat antihuman LDLR, rabbit anti-PCSK9, or rabbit anti-SREBP-2 polyclonal antibody at 1:1000, 1:1500, and 1:200 dilutions, respectively, and then with a HRP-conjugated heterospecific secondary antibody against the primary Igs at a 1:2000 dilution. It was probed for HRP reaction using the Western Lightning Chemiluminescence Reagent Plus a chemiluminescence-based revelation kit. The signal was captured on X-ray film and immunoreactive bands analyzed by densitometry on a Syngene's ChemiGenius^2XE Bio Imaging System (Cambridge, Mass.) within the dynamic range of the instrument. The membrane was stripped and reprobed with the anti-β-actin monoclonal primary antibody at 1:20,000 dilution and HRP-conjugated rabbit anti-mouse IgG secondary antibody at a 1:5000 dilution. The densitometric values of β-actin bands were using for normalization of experimental samples.
Huh7 cells, hepatocyte derived cellular carcinoma cells, were incubated for 24 h in medium containing 10% lipoprotein-depleted serum (LPDS) and 0 to 10 μM Q3G. The level of LDLR mRNA was measured by quantitative real-time RT-PCR; that of the LDLR protein by semi-quantitative immunoblotting. Exposure to Q3G increased the intracellular content of LDLR mRNA in a concentration-dependent manner; the increase reached a 2× maximum at 2 μM (P<0.01, relative to no Q3G) (FIG. 3A). The content of the corresponding protein followed a similar pattern, but reached a 4× maximum at 4 μM (P<0.005) (FIG. 3B).
The kinetics of cellular accumulation of LDLR and PCSK9 at 2 μM Q3G was also examined: PCSK9 accumulation in the cells began after a 3-h lag; that of LDLR after 6-h lag (FIG. 6).
Statins induce expression of LDLR and PCSK9. […] We examined whether, at a 5 μM concentration of Q3G, simvastatin at 0.2 and 1 μM could further up regulate LDLR expression in Huh7 cells; and, inversely, whether the flavonol can reduce statin-stimulated PCSK9 secretion secreted by Huh7 cells.

PCSK9 = assay: ELISA for secreted PCSK9 in conditioned media of Huh7 cells; type: cell-based, human; conditions: Huh7, at the concentrations used for Q3G
Procedure: Media were collected and PCSK9 levels therein were determined by ELISA.
At passage, Huh7 cells were routinely seeded at sub-confluence (˜10^6 cells/10-cm dish) in Dulbecco's modified Eagle's medium (DMEM) containing 10% fetal bovine serum (FBS) or LPDS (for experiments) and 50 μg/ml gentamycin. They were incubated overnight at 37° C., in a humidified 5% CO2-95% air atmosphere. Cells were treated or not with Q3G at defined concentrations and for defined lengths of time. Media were collected and centrifuged at 200 g for 5 min to sediment suspended cells; supernatants were collected and supplemented with 0.33 volumes of a 3×-concentrated PIC. Cell monolayers were rinsed with ice-cold phosphate-buffered saline (PBS); they were overlaid with 0.5 of the RIPA lysis buffer (50 mM Tris-HCl, pH 8, 150 mM NaCl, 1% NP-40, 0.5% Na-deoxycholate and 0.1% SDS) supplemented with 1× PIC. After 20 min in an ice bath, the lysates were centrifuged at 14,000 g and 4° C. for 20 min, and supernatants were collected. Conditioned media and lysates were stored at −20° C. until analysis.
The assays for PCSK9 and insulin were conducted as prescribed by kit manufacturers, using a Thermo Scientific plate reader. For example, PCSK9 levels in conditioned media were measured using the human PCSK9 ELISA kit from Circulex, as specified the manufacturer. The assay was a sandwich immunoassay using two antibodies (A and B) recognizing different PCSK9 epitopes. Briefly, aliquot of diluted media were overlaid on wells coated with anti-PCSK9 antibody A. After 1-h incubation, the wells were washed, overlaid with a solution of HRP-conjugated anti-PCSK9 antibody B, and incubated for 1 h. They were washed again, and overlaid with a solution of tetra-methylbenzidine as a chromogenic substrate for HRP. After 15 min, the reaction was stopped with ammonium sulfate and the absorbance of the reaction mixtures measured by spectrophotometry at 450 nm. All the steps were performed at room temperature. Standards consisted of recombinant human PCSK9.

LDLR [3] = conditions: HepG2 hepatocytes, 75 μM; cited from earlier work

SMILES: COc1ccc2cc3[n+](cc2c1OC)CCc1cc2c(cc1-3)OCO2 [Berberine]
- PCSK9 gene transcription (PCSK9 gene): reduces
- expression of HNF-1α [1]: decreased expression

SMILES: O=c1c(O)c(-c2ccc(O)c(O)c2)oc2cc(O)cc(O)c12 [quercetin aglycone, quercetin]
- Apo B secretion (Apo B): inhibit
- increase in LDLR level (LDLR [2]): not observed
- effect on PCSK9 secretion (PCSK9): not observed
- effect on PCSK9 secretion (PCSK9; listed as aglycone form of quercetin): failed to affect PCSK9 secretion
- LDLR expression (LDLR [3]): up-regulation
